Laboratory results: patent US9458194B2, “Compounds useful in the treatment and/or care of the skin and their cosmetic or pharmaceutical compositions” (Lubrizol Advanced Materials, Inc., priority 2013, dated 2016)
Where “and” joins values, the source holds several entries; their conditions need not be identical. Identical values can stand only once.

Legend:
Type in all cases: cell-based
elastin = experiment: Elastin synthesis in human dermal fibroblasts (Fastin Elastin Assay); conditions: 0.01 μg/ml, 48 hours, vs negative control
Description: Stimulation of elastin synthesis induced by Ac-L-Asp-L-Val-L-Lys-L-Tyr-OH was evaluated by means of a quantitative method of staining, Fastin Elastin Assay (Tebu-Bio). Human dermal fibroblasts were trypsinized and seeded at a density of 7×10^4 cells/well in 6-well plates. After 72 hours of incubation at 37° C., 5% CO2, with a humidified atmosphere, a new medium was added with 0.01 μg/mL Ac-L-Asp-L-Val-L-Lys-L-Tyr-OH. Untreated cells were used as negative controls and cells treated with TGF-1β (Peprotech) were used as positive controls. The cells were incubated for an additional 48 hours at 37° C., 5% CO2, with humidified atmosphere. Subsequently, the elastin was solubilized and extracted, for which the cells were washed twice with PBS (Sigma) and a solution was added to uncouple the cells (Cell Dissociation Solution, Sigma). The suspension of cells was transferred to centrifuge tubes, 1 M Oxalic Acid was added provided by the kit and they were incubated at 100° C. for 1 hour. Once the elastin became soluble, a calibration curve was prepared with the elastin provided with the kit. From that point, the samples and dilutions of the calibration curve were processed following the kit instructions to isolate and stain the elastin. Lastly, the dye was extracted and the absorbency reading was carried out at a wave length of 540 nm in a TECAN GENios spectrophotometric reader.

[1] = tested on: human fibulin-5 gene promoter; experiment: Luminescence assay of human fibulin-5 gene promoter activation (Firefly luciferase); conditions: 16-24 hours
Description: (§1) The effect of the compounds of the invention on the activity of the fibulin-5 and LOXL1 promoters was studied and compared to the levels of basal expression of the untreated cells (negative control) and with the effect of Interleukin-1β (IL-1β) in the same conditions.
(§2) Cells from an epithelial cell line doubly transfected with fibulin-5 and LOXL1 human promoters in which the luciferase gene is under the regulatory control of said promoters (4×10^4 cells/well) were seeded in a white plate and in a 96-well transparent plate, both treated with polylysine, and were incubated in Dulbecco's Modified Eagle Medium (DMEM-Glutamax™), with 10% of FBS, 1% Penicillin-Streptomycin (P/S), 1 mg/ml of Geneticin® (G418) and […] at 37° C. in at atmosphere with 5% CO2. After the incubation, the cells were incubated for 6 hours at 37° C. in at atmosphere with 5% CO2 with DMEM without serum. Then, this medium was removed and the cells were treated with different compounds at 0.1 mg/ml, 0.5 mg/ml, 1 mg/ml or 2 mg/mL in DMEM/1% FBS for 16-24 hours. As a positive control to activate the fibulin-5 and LOXL1 promoters 10 ng/ml of IL-1β were used and as a negative control untreated cells were used, just with DMEM/1% FBS. The incubations and treatments were carried out in parallel in the white plate and the transparent plate and in triplicate for each condition. After the treatment, the relative light units per second were determined (RLU/s) in the white plate by means of consecutive quantification of the activities of Firefly luciferase (fibulin-5 promoter) and Renilla luciferase (LOXL1 promoter), and the number of total cells/well in the transparent plate by means of staining with Crystal Violet (CV). To determine the Firefly and Renilla luciferase activities the Dual-Glo Luciferase Assay System kit by Promega was used. The cells were briefly lysed and the Firefly luciferase substrate was added. After incubating for 10 min at 25° C., the RLU/s were quantified by luminescence reader (Lumistar-BMG). Then the Firefly signal was extinguished and the Renilla luciferase substrate was added. After incubating for 5 min at 25° C., the RLU/s were quantified by the same luminescence reader. With regard to the determination of the total number of cells by Crystal Violet, the CV dyes the DNA of the cells and the quantity of dye taken by the cells can be measured in an absorbency reader at 630 nm (Multiskan Ascent). The color obtained is directly proportional to the total number of cells per well. The cells were briefly incubated with 0.05% CV plus 4% Formalin for 20 minutes and after several washes with Milli-Q water, the cells were left to dry for 1-2 hours and then 0.1 M of HCl was added for its immediate reading. The RLU/s of the luciferases corresponding to each promoter were normalized by the average of the total number of cells per condition. Three independent assays with 3 measurements per assay were carried out for Ac-L-Asp-L-Val-L-Lys-L-Tyr-OH at 0.1 mg/mL and 1 mg/mL. 1 assay with 3 measurements was carried out for the other compounds and concentrations.
(§3) The increase in the activity of the promoters with regard to the levels of expression of the negative control was determined.

[2] = tested on: human LOXL1 gene promoter; experiment: Luminescence assay of human LOXL1 gene promoter activation (Renilla luciferase); conditions: 16-24 hours
Description: as §1, §2, §3

Substance: Ac-L-Asp-L-Val-L-Lys-L-Tyr-OH (Ac-DVKY-OH)
- INCREASE IN ELASTIN SYNTHESIS (elastin): 21.7%
- Increase in the activity of the human promoter of the FIBULIN 5 gene with regard to the negative control ([1]; 0.1 mg/mL): 7.46%
- Increase in the activity of the human promoter of the FIBULIN 5 gene with regard to the negative control ([1]; 1 mg/mL): 19% and 19.40%
- Increase in the activity of the human promoter of the FIBULIN 5 gene with regard to the negative control ([1]; 2 mg/mL): 53.20%
- Increase in the activity of the human promoter of the LOXL1 gene with regard to the negative control ([2]; 0.1 mg/mL): 7.12%
- Increase in the activity of the human promoter of the LOXL1 gene with regard to the negative control ([2]; 1 mg/mL): 27% and 27.06%
- Increase in the activity of the human promoter of the LOXL1 gene with regard to the negative control ([2]; 2 mg/mL): 10.41%
